Reference: PubChem BioAssay AID256 (DTP/NCI, 2004)
Several values for one entry are separate records, joined by “and”; a condition that tells them apart may be missing. Equal values may be shown once. Inconclusive results and toxic doses are left out.

Test system: CD2F1 mice, L1210 leukemia ip, survival T/C
Experiment: NCI In Vivo Anticancer Drug Screen. Data for tumor model L1210 Leukemia (intraperitoneal) in CD2F1 (CDF1) mice
Settings: higher = longer survival
Summary of the method: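 Mice carrying a transplanted tumor received test compound or vehicle alone. The value is the measurement in the treated group divided by that in the vehicle-treated control group.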

[1] = endpoint: mean survival time, dose: 12.5 mg/kg/injection, schedule: Q04DX002 (ip), vehicle: saline with Tween-80
[2] = endpoint: mean survival time, dose: 25.0 mg/kg/injection, schedule: Q04DX003 (ip), vehicle: saline with Tween-80
[3] = endpoint: mean survival time, dose: 50.0 mg/kg/injection, schedule: Q01DX001 (ip), vehicle: saline with Tween-80
[4] = endpoint: mean survival time, dose: 50.0 mg/kg/injection, schedule: Q01DX009 (ip), vehicle: saline with Tween-80
[5] = endpoint: mean survival time, dose: 50.0 mg/kg/injection, schedule: Q04DX003 (ip), vehicle: saline with Tween-80
[6] = endpoint: mean survival time, dose: 100.0 mg/kg/injection, schedule: Q01DX001 (ip), vehicle: saline with Tween-80
[7] = endpoint: mean survival time, dose: 100.0 mg/kg/injection, schedule: Q01DX009 (ip), vehicle: saline with Tween-80
[8] = endpoint: mean survival time, dose: 100.0 mg/kg/injection, schedule: Q04DX003 (ip), vehicle: saline with Tween-80
[9] = endpoint: mean survival time, dose: 200.0 mg/kg/injection, schedule: Q01DX001 (ip), vehicle: saline with Tween-80
[10] = endpoint: mean survival time, dose: 200.0 mg/kg/injection, schedule: Q04DX002 (ip), vehicle: saline with Tween-80
[11] = endpoint: mean survival time, dose: 100.0 mg/kg/injection, schedule: Q04DX002 (ip), vehicle: saline with Tween-80
[12] = endpoint: mean survival time, dose: 100.0 mg/kg/injection, schedule: Q01DX001 (ip), vehicle: saline
[13] = endpoint: mean survival time, dose: 200.0 mg/kg/injection, schedule: Q01DX001 (ip), vehicle: saline
[14] = endpoint: mean survival time, dose: 400.0 mg/kg/injection, schedule: Q01DX001 (ip), vehicle: saline
[15] = endpoint: mean survival time, dose: 400.0 mg/kg/injection, schedule: Q01DX001 (ip), vehicle: saline with Tween-80
[16] = endpoint: mean survival time, dose: 200.0 mg/kg/injection, schedule: Q01DX009 (ip), vehicle: saline with Tween-80
[17] = endpoint: mean survival time, dose: 400.0 mg/kg/injection, schedule: Q01DX009 (ip), vehicle: saline with Tween-80
[18] = endpoint: mean survival time, dose: 200.0 mg/kg/injection, schedule: Q04DX003 (ip), vehicle: saline with Tween-80
[19] = endpoint: mean survival time, dose: 400.0 mg/kg/injection, schedule: Q04DX003 (ip), vehicle: saline with Tween-80

Compound: CC(O)CC(C)(C)S(=O)(=O)Cc1ccccc1 (stereo not given)
- T/C (endpoint: mean survival time, dose: 100.0 mg/kg/injection, schedule: Q01DX001 (ip), vehicle: Klucel (hydroxypropylcellulose) (HPC)): 101 % of control
- T/C (endpoint: mean survival time, dose: 200.0 mg/kg/injection, schedule: Q01DX001 (ip), vehicle: Klucel (hydroxypropylcellulose) (HPC)): 86 % of control
- T/C (endpoint: mean survival time, dose: 400.0 mg/kg/injection, schedule: Q01DX001 (ip), vehicle: Klucel (hydroxypropylcellulose) (HPC)): 93 % of control

Compound: N#CC(c1ccccn1)N1CCOCC1 (stereo not given)
- T/C [1]: 97 % of control and 100 % of control
- T/C [2]: 104 % of control
- T/C [3]: 100 % of control
- T/C [4]: 89 % of control and 103 % of control
- T/C [5]: 109 % of control
- T/C [6]: 94 % of control
- T/C [7]: 89 % of control and 95 % of control
- T/C [8]: 107 % of control
- T/C [9]: 100 % of control
- T/C [10]: 98 % of control

Compound: COc1cccc2c1C(=O)c1c(O)c3c(c(O)c1C2=O)C[C@@](O)(C(=O)CO)C[C@@H]3OC1CC(NC=O)C(O)C(C)O1 (stereo not given in full)
- T/C (endpoint: mean survival time, dose: 6.25 mg/kg/injection, schedule: Q04DX003 (ip), vehicle: water): 93 % of control
- T/C (endpoint: mean survival time, dose: 12.5 mg/kg/injection, schedule: Q04DX003 (ip), vehicle: water): 93 % of control
- T/C (endpoint: mean survival time, dose: 25.0 mg/kg/injection, schedule: Q04DX003 (ip), vehicle: water): 102 % of control
- T/C (endpoint: mean survival time, dose: 50.0 mg/kg/injection, schedule: Q04DX003 (ip), vehicle: water): 112 % of control
- T/C (endpoint: mean survival time, dose: 100.0 mg/kg/injection, schedule: Q04DX003 (ip), vehicle: water): 114 % of control

Compound: CC(=O)OC1CCC2(C)C3=CCC4(C)C(C(C)/C=C\C(C)C(C)C)CCC4C34C=CC2(C1)C1C(=O)OC(=O)C14 (stereo not given)
- T/C [3]: 97 % of control
- T/C [6]: 91 % of control
- T/C [11]: 86 % of control
- T/C [9]: 95 % of control

Compound: CC1(C)SCNC1C(=O)O (stereo not given)
- T/C [12]: 96 % of control
- T/C [13]: 100 % of control
- T/C [14]: 94 % of control

Compound: CC1(OO)OOC(=O)C1(C)C (stereo not given)
- T/C (endpoint: mean survival time, dose: 6.25 mg/kg/injection, schedule: Q04DX002 (ip), vehicle: saline with Tween-80): 90 % of control
- T/C [1]: 93 % of control
- T/C (endpoint: mean survival time, dose: 25.0 mg/kg/injection, schedule: Q04DX002 (ip), vehicle: saline with Tween-80): 96 % of control

Compound: Nc1nc(=O)n(CCCOc2ccc(Cl)cc2)cc1-c1ccccc1
- T/C [6]: 98 % of control
- T/C [9]: 101 % of control
- T/C [15]: 88 % of control

Compound: Cc1ncc(C=C(C(=O)O)C(=O)O)n1Cc1ccccc1
- T/C [6]: 98 % of control
- T/C [9]: 104 % of control
- T/C [15]: 104 % of control

Compound: CC(C)c1nc(-c2ccccc2)c(-c2ccccc2)[nH]1
- T/C [7]: 103 % of control
- T/C [16]: 94 % of control
- T/C [17]: 100 % of control

Compound: CC(=O)OCC1OC(OC2=C(CC=C(C)C)C(=O)c3ccccc3C2=O)C(OC(C)=O)C(OC(C)=O)C1OC(C)=O (stereo not given)
- T/C (endpoint: mean survival time, dose: 6.25 mg/kg/injection, schedule: Q01DX009 (ip), vehicle: Klucel (hydroxypropylcellulose) (HPC)): 108 % of control
- T/C (endpoint: mean survival time, dose: 12.5 mg/kg/injection, schedule: Q01DX009 (ip), vehicle: Klucel (hydroxypropylcellulose) (HPC)): 101 % of control and 108 % of control
- T/C (endpoint: mean survival time, dose: 25.0 mg/kg/injection, schedule: Q01DX009 (ip), vehicle: Klucel (hydroxypropylcellulose) (HPC)): 101 % of control and 108 % of control
- T/C (endpoint: mean survival time, dose: 50.0 mg/kg/injection, schedule: Q01DX009 (ip), vehicle: Klucel (hydroxypropylcellulose) (HPC)): 101 % of control
- T/C (endpoint: mean survival time, dose: 100.0 mg/kg/injection, schedule: Q01DX009 (ip), vehicle: Klucel (hydroxypropylcellulose) (HPC)): 92 % of control and 102 % of control
- T/C (endpoint: mean survival time, dose: 200.0 mg/kg/injection, schedule: Q01DX009 (ip), vehicle: Klucel (hydroxypropylcellulose) (HPC)): 89 % of control and 96 % of control

Compound: Cc1c2cnccc2c(C)c2c1c1ccccc1n2CCCCCCNCc1ccccc1
- T/C [2]: 95 % of control
- T/C [5]: 89 % of control
- T/C [8]: 95 % of control

Compound: O/N=C1\C=C2C/C(=N/O)C=C2C1
- T/C [4]: 100 % of control
- T/C [7]: 96 % of control
- T/C [16]: 96 % of control

Compound: S=C(NCCSSCCNC(=S)Nc1ccccc1)Nc1ccccc1
- T/C [8]: 98 % of control
- T/C [18]: 94 % of control
- T/C [19]: 86 % of control

Compound: C[n+]1ccccc1C#N
- T/C (endpoint: mean survival time, dose: 25.0 mg/kg/injection, schedule: Q01DX009 (ip), vehicle: saline sonified): 102 % of control
- T/C (endpoint: mean survival time, dose: 50.0 mg/kg/injection, schedule: Q01DX009 (ip), vehicle: saline sonified): 102 % of control
- T/C [8]: 95 % of control

Compound: CNC(=O)OCc1c(COC(=O)NC)c(-c2ccc(Cl)c(Cl)c2)n2c1Cc1ccccc1C2
- T/C (endpoint: median survival time, dose: 12.5 mg/kg/injection, schedule: Q01DX009 (ip), vehicle: distilled water + Tween-80): 122 % of control
- T/C (endpoint: median survival time, dose: 25.0 mg/kg/injection, schedule: Q01DX009 (ip), vehicle: distilled water + Tween-80): 122 % of control
- T/C (endpoint: median survival time, dose: 50.0 mg/kg/injection, schedule: Q01DX009 (ip), vehicle: distilled water + Tween-80): 157 % of control
- T/C (endpoint: median survival time, dose: 100.0 mg/kg/injection, schedule: Q01DX009 (ip), vehicle: distilled water + Tween-80): 164 % of control and 173 % of control
- T/C (endpoint: median survival time, dose: 200.0 mg/kg/injection, schedule: Q01DX009 (ip), vehicle: distilled water + Tween-80): 124 % of control

Compound: CC12CCC(=O)C=C1CCC1C2C(=O)CC2(C)C1CCC2(O)C(=O)Cn1c(=O)[nH]cc(F)c1=O (stereo not given)
- T/C (endpoint: mean survival time, dose: 12.5 mg/kg/injection, schedule: Q04DX003 (ip), vehicle: Klucel (hydroxypropylcellulose) (HPC)): 103 % of control
- T/C (endpoint: mean survival time, dose: 25.0 mg/kg/injection, schedule: Q04DX003 (ip), vehicle: Klucel (hydroxypropylcellulose) (HPC)): 97 % of control
- T/C (endpoint: mean survival time, dose: 50.0 mg/kg/injection, schedule: Q04DX003 (ip), vehicle: Klucel (hydroxypropylcellulose) (HPC)): 100 % of control
- T/C (endpoint: mean survival time, dose: 100.0 mg/kg/injection, schedule: Q04DX003 (ip), vehicle: Klucel (hydroxypropylcellulose) (HPC)): 97 % of control
- T/C (endpoint: mean survival time, dose: 200.0 mg/kg/injection, schedule: Q04DX003 (ip), vehicle: Klucel (hydroxypropylcellulose) (HPC)): 97 % of control

Compound: COc1ccc(N2C(=O)C=CC2=O)cc1
- T/C (endpoint: mean survival time, dose: 6.25 mg/kg/injection, schedule: Q01DX001 (ip), vehicle: saline with Tween-80): 103 % of control
- T/C (endpoint: mean survival time, dose: 12.5 mg/kg/injection, schedule: Q01DX001 (ip), vehicle: saline with Tween-80): 88 % of control
- T/C (endpoint: mean survival time, dose: 25.0 mg/kg/injection, schedule: Q01DX001 (ip), vehicle: saline with Tween-80): 94 % of control and 97 % of control

Compound: C/C(=C/Cc1c(O)c(C)c2c(c1O)C(=O)OC2)CCC(=O)NCCc1ccccc1
- T/C [11]: 87 % of control
- T/C [10]: 87 % of control
- T/C (endpoint: mean survival time, dose: 400.0 mg/kg/injection, schedule: Q04DX002 (ip), vehicle: saline with Tween-80): 96 % of control

Compound: O=C1C=CC(=O)C=C1 (tested in a mixture with another compound)
- T/C (endpoint: mean survival time, dose: 1.0 mg/kg/injection, schedule: Q01DX009 (ip), vehicle: saline sonified): 98 % of control
- T/C (endpoint: mean survival time, dose: 1.0 mg/kg/injection, schedule: Q04DX003 (ip), vehicle: saline with Tween-80): 97 % of control
- T/C (endpoint: mean survival time, dose: 2.0 mg/kg/injection, schedule: Q01DX009 (ip), vehicle: saline sonified): 94 % of control
- T/C (endpoint: mean survival time, dose: 2.0 mg/kg/injection, schedule: Q04DX003 (ip), vehicle: saline with Tween-80): 95 % of control
- T/C (endpoint: mean survival time, dose: 3.0 mg/kg/injection, schedule: Q01DX009 (ip), vehicle: saline sonified): 98 % of control
- T/C (endpoint: mean survival time, dose: 3.0 mg/kg/injection, schedule: Q04DX003 (ip), vehicle: saline with Tween-80): 95 % of control
- T/C (endpoint: mean survival time, dose: 6.0 mg/kg/injection, schedule: Q01DX009 (ip), vehicle: saline sonified): 90 % of control
- T/C (endpoint: mean survival time, dose: 6.0 mg/kg/injection, schedule: Q04DX003 (ip), vehicle: saline with Tween-80): 97 % of control

Compound: CN(N)c1nc(N)c(C#N)c(C#N)c1C#N
- T/C (endpoint: mean survival time, dose: 50.0 mg/kg/injection, schedule: Q01DX001 (ip), vehicle: saline): 97 % of control
- T/C [12]: 101 % of control
- T/C [13]: 101 % of control
- T/C [14]: 97 % of control

Compound: O=C(CCCl)Oc1ccc(Br)cc1
- T/C [7]: 94 % of control
- T/C [8]: 98 % of control
- T/C [16]: 96 % of control
- T/C [18]: 100 % of control
- T/C [17]: 102 % of control
- T/C [19]: 96 % of control

Compound: O=c1cc(-c2ccccc2)nc2c(Cl)cc(Cl)cn12
- T/C [6]: 96 % of control
- T/C [9]: 93 % of control
- T/C [15]: 96 % of control

Compound: CCC(CC(=O)O)c1ccccc1 (stereo not given)
- T/C (endpoint: mean survival time, dose: 50.0 mg/kg/injection, schedule: Q04DX003 (ip), vehicle: saline): 96 % of control
- T/C (endpoint: mean survival time, dose: 100.0 mg/kg/injection, schedule: Q04DX003 (ip), vehicle: saline): 100 % of control
- T/C (endpoint: mean survival time, dose: 200.0 mg/kg/injection, schedule: Q04DX003 (ip), vehicle: saline): 102 % of control
